Measured values taken from US10316100B2, “Treating basal-like genotype cancers” (The UAB Research Foundation, priority 2009, dated 2019).

Tests used:
[1] = tested on: triple negative breast cell (TNBC) cell lines (basal); assay: TRA-8 cytotoxicity against the panel of TNBC cell lines; type: cell-based, human; details: cell lines of basal B subtype (FIG. 1)
[2] = biological target: T1, DR5/DDX3/cIAP1 protein complex (Homo sapiens, UniProt Q13490); assay: cIAP1 in the DR5 complex by DR5-coIP, pancreatic cancer cells; type: cell-based; details: 10 uM AT-406, 1000 ng/ml TRA-8, overnight
T1 construct: endogenous in cells; host or cells: S2013 (printed S013) and S2VP10 human pancreatic cancer cells
T1 sequence (Q13490 whole entry, one chain of several): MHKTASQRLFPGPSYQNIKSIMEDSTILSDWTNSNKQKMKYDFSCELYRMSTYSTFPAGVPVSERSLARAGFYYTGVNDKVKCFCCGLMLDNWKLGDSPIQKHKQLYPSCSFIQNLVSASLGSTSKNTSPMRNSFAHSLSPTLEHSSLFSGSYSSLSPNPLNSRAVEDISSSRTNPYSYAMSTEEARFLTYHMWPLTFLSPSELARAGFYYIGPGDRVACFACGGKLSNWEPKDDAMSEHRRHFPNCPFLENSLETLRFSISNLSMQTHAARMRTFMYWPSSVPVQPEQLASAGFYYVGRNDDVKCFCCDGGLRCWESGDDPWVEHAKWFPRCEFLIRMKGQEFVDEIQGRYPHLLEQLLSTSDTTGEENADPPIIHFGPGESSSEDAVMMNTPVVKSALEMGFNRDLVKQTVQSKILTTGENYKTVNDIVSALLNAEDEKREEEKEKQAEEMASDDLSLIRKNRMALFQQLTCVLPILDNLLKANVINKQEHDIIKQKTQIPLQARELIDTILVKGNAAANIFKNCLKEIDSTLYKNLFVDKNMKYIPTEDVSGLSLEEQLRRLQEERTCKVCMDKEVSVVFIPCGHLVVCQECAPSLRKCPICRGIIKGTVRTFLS

cIAP2 = cIAP2 (Homo sapiens, UniProt Q13489); details: cited from earlier work
Chain of cIAP2 (Q13489 whole entry): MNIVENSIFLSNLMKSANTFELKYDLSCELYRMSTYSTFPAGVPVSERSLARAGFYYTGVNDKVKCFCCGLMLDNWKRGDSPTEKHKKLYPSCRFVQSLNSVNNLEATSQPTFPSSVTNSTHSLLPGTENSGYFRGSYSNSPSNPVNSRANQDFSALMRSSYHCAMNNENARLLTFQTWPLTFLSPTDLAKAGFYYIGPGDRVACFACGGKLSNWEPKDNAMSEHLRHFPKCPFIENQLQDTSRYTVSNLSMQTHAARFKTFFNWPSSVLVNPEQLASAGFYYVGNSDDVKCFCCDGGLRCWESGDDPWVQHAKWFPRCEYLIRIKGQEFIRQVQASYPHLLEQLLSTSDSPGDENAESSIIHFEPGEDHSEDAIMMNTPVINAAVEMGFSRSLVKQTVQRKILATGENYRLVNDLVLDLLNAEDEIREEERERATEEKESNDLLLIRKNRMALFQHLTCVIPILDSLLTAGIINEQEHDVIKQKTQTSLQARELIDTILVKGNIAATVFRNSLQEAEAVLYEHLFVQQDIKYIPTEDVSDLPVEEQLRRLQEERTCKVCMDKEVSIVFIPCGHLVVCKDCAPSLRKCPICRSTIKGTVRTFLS

[3] = tested on: IAP proteins associated with DDX3; assay: IAP proteins in the DDX3 complex, breast cancer cell lines (DDX3 immunoprecipitation, 3H4 blot); type: cell-based, human; details: panel of breast cancer cell lines; 1000 ng/ml TRA-8, 10 uM AT-406, overnight
Experimental: FIGS. 10A, 10B, and 10C show the in vitro effect of AT-406 on IAPs in breast cancer cell lines. Human breast cancer cell lines (MB436 and 2LMP (FIG. 10A), SUM159 and SUM149 (FIG. 10B), BT474 and MB468 (FIG. 10C) were treated with control medium (lane 1) or 1000 ng/ml TRA-8 (lane 2), or 10 uM AT-406 (lane 3) or both (lane 4) overnight. Cell lysates from treated cells were immunoprecipitated with an anti-DDX3 antibody (clone 3E4). The precipitated proteins were western blotted and the IAP proteins were detected by 3H4 antibody.
Effect of AT-406 on expression of IAP proteins in the DDX3 complex was analyzed in a panel of breast cancer cell lines including triple negative and non-triple negative lines. As previously shown, four triple negative breast cancer lines, […], 2LMP (FIG. 10A), SUM 159, and SUM 149 (FIG. 10B) expressed lower levels of cIAP1 or cIAP2 protein when co-immunoprecipitated with DDX3, compared to two non-triple negative lines, BT474 and MB468 (FIG. 10C), which were resistant to TRA-8-mediated apoptosis.

[4] = tested on: human pancreatic cancer cells, S013 and S2VP10; assay: Effect of AT-406 on TRA-8-induced apoptosis of pancreatic cancer cells; type: cell-based; details: 10 μM AT-406 alone
Text: To determine whether AT-406 is able to overcome DR5-apoptosis resistance of pancreatic cancer cells, the effect of AT-406 on TRA-8-induced apoptosis was examined for two lines of human pancreatic cancer cells, S013 and S2VP10, both of which are highly resistant to TRA-8-mediated apoptosis. […] To determine the effect of AT-406 on the DR5/DDX3/cIAP1 protein complex, the amount of cIAP1 was examined by DR5-coIP. […] This was not due to the reduction of DR5-associated DDX3 as DDX3 was equally co-immunoprecipitated with DR5.

XIAP = XIAP (Homo sapiens, UniProt P98170); details: cited from earlier work
Chain of XIAP (P98170 whole entry): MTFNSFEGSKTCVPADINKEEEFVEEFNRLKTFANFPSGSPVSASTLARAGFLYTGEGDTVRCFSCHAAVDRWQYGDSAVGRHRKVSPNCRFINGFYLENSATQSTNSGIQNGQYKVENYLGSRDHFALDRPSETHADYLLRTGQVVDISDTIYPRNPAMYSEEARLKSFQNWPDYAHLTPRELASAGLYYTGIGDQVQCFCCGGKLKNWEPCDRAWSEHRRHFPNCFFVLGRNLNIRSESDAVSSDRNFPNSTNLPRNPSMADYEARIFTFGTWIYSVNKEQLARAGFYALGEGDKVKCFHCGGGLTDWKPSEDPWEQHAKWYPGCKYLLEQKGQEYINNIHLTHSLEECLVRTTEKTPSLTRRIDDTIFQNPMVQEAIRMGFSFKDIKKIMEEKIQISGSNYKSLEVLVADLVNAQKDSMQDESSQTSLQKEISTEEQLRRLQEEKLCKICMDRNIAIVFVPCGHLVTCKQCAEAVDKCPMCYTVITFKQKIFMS

TRAIL-mediated apoptosis = details: cited from earlier work
IAP proteins = assay: Western blot of IAP proteins in total cell lysates with 3H4 antibody, pancreatic cancer cells; type: cell-based, human; details: S2013 and S2VP10; 1000 ng/ml TRA-8, 10 uM AT-406, overnight
cIAP1 = cIAP1 (Homo sapiens, UniProt Q13490); details: cited from earlier work
Chain of cIAP1 (Q13490 whole entry): as the sequence (Q13490 whole entry, one chain of several) above

[5] = tested on: SUM159 orthotopic basal B xenografts; assay: In vivo efficacy against SUM159 orthotopic xenografts; parameters: species or system athymic nude mice; details: untreated 17.9 days
Experimental: (§1) The arrows indicate the interval during which antibody was administered (n=9-10 mice/group).
(§2) Treatments were initiated once tumors were well-established, with tumor diameters of about 6 mm, and tumor size was monitored over time.

[6] = tested on: 2LMP orthotopic basal B xenografts; assay: In vivo efficacy against 2LMP orthotopic xenografts; parameters: species or system athymic nude mice; details: 2LMP xenografts; untreated 8.6 days
Experimental: as §1, §2

DDX3 = assay: siRNA mediated knockdown of DDX3, Western blot in TRA-8-resistant MDA231 cells; type: cell-based, human; details: among five RNAi constructs
Text: Design RNAi: an online design tool, BLOCK-iT RNAi Designer (Invitrogen; Carlsbad, Calif.), was used to identify RNAi targets for DDX3. Five targeted siRNA sequences were selected from the top 10 highest scoring RNAi targets (see Table 1).
They were then cloned into the BLOCK-iT U6 entry vector. The siRNA is driven by the U6 promoter and can be transiently expressed in most dividing or nondividing mammalian cell types. Resistant cells were transfected with RNAi used LIPOFECTAMINE 2000 (Invitrogen; Carlsbad, Calif.) for the RNAi response. The decreased DDX3 expression was determined by Western blot analysis using anti-DDX3 antibody 36 hours after transfection. […]
To study the role of DDX3 in DR5 signaling, the importance of endogenous DDX3 in TRA-8-induced apoptosis was examined. […] TRA-8-resistant MDA231 cells were transfected with five RNAi constructs, and protein expression levels of DDX3 were determined by Western blot analysis using monoclonal anti-DDX3 antibody 48 hours post-transfection. […] To further determine the causal role of DDX3 in DR5-mediated apoptosis, DDX3 expression was reduced in a panel of tumor cells and their susceptibility to TRA-8-induced apoptosis analyzed. […]

TRAIL: Recombinant soluble TRAIL purchased from Alexis Biochemicals
cytotoxicity compared with TRA-8 [1]: Equivalent cytotoxicity

CN[C@@H](C)C(=O)N[C@H]1CN(C(=O)CC(C)C)CC[C@H]2CC[C@@H](C(=O)NC(c3ccccc3)c3ccccc3)N2C1=O [AT-406]
amount of cIAP1 in the DR5 complex [2]: dramatic reduction
affinity (cIAP2): low nanomolar affinity
levels of the IAP proteins associated with DDX3 [3]: significantly reduced
cell death [4]: did not induce significant cell death
affinity (XIAP): low nanomolar affinity
effect on TRAIL-mediated apoptosis (TRAIL-mediated apoptosis): synergistically enhances
total IAP protein expression (IAP proteins): did not alter
affinity (cIAP1): low nanomolar affinity

COc1cccc2c1C(=O)c1c(O)c3c(c(O)c1C2=O)C[C@@](O)(C(=O)CO)C[C@@H]3O[C@H]1C[C@H](N)[C@H](O)[C@H](C)O1 [Adriamycin]
mean tumor doubling time [5]: 41.9 days
tumor doubling time [6]: 51.1 days

B1: construct #2: DDX3 RNAi construct 562-582, SEQ ID NO: 6 and 7 (nucleic acid)
chain 1: CACCGGAGAAATTATCATGGGAAACCGAAGTTTCCCATGATAATTTCTCC
chain 2: AAAAGGAGAAATTATCATGGGAAACTTCGGTTTCCCATGATAATTTCTCC
modifications: expressed or natural sequence
rank as inhibitor of DDX3 expression (DDX3): most effective
